Experimental data as given in PubChem BioAssay AID1259407 (Chemical Carcinogenesis Research Information System (CCRIS), 2018).
Activity calls are given as the source filed them. The rule behind the calls is not given here.

System: CCRIS mutagenicity, Ames/micronucleus/aberration tests
Assay: CCRIS mutagenicity studies
[1] = Test System: AMES SALMONELLA TYPHIMURIUM, Strain/Indicator: TA98, Metabolic Activation: NONE, Method: STANDARD PLATE
[2] = Test System: AMES SALMONELLA TYPHIMURIUM, Strain/Indicator: TA100, Metabolic Activation: NONE, Method: STANDARD PLATE
[3] = Test System: AMES SALMONELLA TYPHIMURIUM, Strain/Indicator: TA100, Metabolic Activation: RAT, LIVER, S-9, AROCLOR 1254, Method: PREINCUBATION
[4] = Test System: AMES SALMONELLA TYPHIMURIUM, Strain/Indicator: TA98, Metabolic Activation: NONE, Method: PREINCUBATION
[5] = Test System: AMES SALMONELLA TYPHIMURIUM, Strain/Indicator: TA100, Metabolic Activation: NONE, Method: PREINCUBATION
[6] = Test System: AMES SALMONELLA TYPHIMURIUM, Strain/Indicator: TA98, Metabolic Activation: RAT, LIVER, S-9, AROCLOR 1254, Method: STANDARD PLATE
[7] = Test System: AMES SALMONELLA TYPHIMURIUM, Strain/Indicator: TA100, Metabolic Activation: RAT, LIVER, S-9, AROCLOR 1254, Method: STANDARD PLATE

Measured: mutagenic call

Cc1ccc(NC(=O)N(C)C)cc1Cl
inactive: Test System: AMES SALMONELLA TYPHIMURIUM, Strain/Indicator: TA98, Metabolic Activation: IMMATURE CARP LIVER S-9, 3-METHYLCHOLANTHRENE, Method: STANDARD PLATE inactive; negative | [1] inactive; negative | Test System: AMES SALMONELLA TYPHIMURIUM, Strain/Indicator: TA100, Metabolic Activation: IMMATURE CARP LIVER S-9, 3-METHYLCHOLANTHRENE, Method: STANDARD PLATE inactive; negative | [2] inactive; negative

CCN(CC)c1ccc(N=Nc2ccccc2)cc1
inactive: Test System: AMES SALMONELLA TYPHIMURIUM, Strain/Indicator: TA98, Metabolic Activation: RAT, LIVER, MICROSOMES, 4-DIETHYLAMINOAZOBENZENE, Method: PREINCUBATION inactive; negative | Test System: AMES SALMONELLA TYPHIMURIUM, Strain/Indicator: TA98, Metabolic Activation: RAT, LIVER, MICROSOMES, AROCLOR 1254, Method: PREINCUBATION inactive; negative | Test System: AMES SALMONELLA TYPHIMURIUM, Strain/Indicator: TA98, Metabolic Activation: RAT, LIVER, MICROSOMES, Method: PREINCUBATION inactive; negative

Cc1cc2c(O)cccc2c2cc3c(cc12)C=C[C@H](O)[C@H]3O
active: [3] active; positive

O=C(O)c1ccco1
inactive: [1] inactive; negative | [2] inactive; negative

O=c1c2cc(O)ccc2oc2cc(O)cc(O)c12
inactive: Test System: AMES SALMONELLA TYPHIMURIUM, Strain/Indicator: TA98, Metabolic Activation: RAT, LIVER, S-9, PHENOBARBITAL AND 5,6-BENZOFLAVONE, Method: PREINCUBATION inactive; negative
active: Test System: AMES SALMONELLA TYPHIMURIUM, Strain/Indicator: TA97, Metabolic Activation: RAT, LIVER, S-9, PHENOBARBITAL AND 5,6-BENZOFLAVONE, Method: PREINCUBATION active; positive | Test System: AMES SALMONELLA TYPHIMURIUM, Strain/Indicator: TA100, Metabolic Activation: RAT, LIVER, S-9, PHENOBARBITAL AND 5,6-BENZOFLAVONE, Method: PREINCUBATION active; positive | Test System: AMES SALMONELLA TYPHIMURIUM, Strain/Indicator: TA2637, Metabolic Activation: RAT, LIVER, S-9, PHENOBARBITAL AND 5,6-BENZOFLAVONE, Method: PREINCUBATION active; positive

O=C1C=CC(=O)N1c1ccc(Cc2ccc(N3C(=O)C=CC3=O)cc2)cc1
inactive: Test System: AMES SALMONELLA TYPHIMURIUM, Strain/Indicator: TA98, Metabolic Activation: HAMSTER, LIVER, S-9, AROCLOR 1254 (10%), Method: STANDARD PLATE inactive; negative | [1] inactive; negative | Test System: AMES SALMONELLA TYPHIMURIUM, Strain/Indicator: TA98, Metabolic Activation: RAT, LIVER, S-9, AROCLOR 1254 (10%), Method: STANDARD PLATE inactive; negative | Test System: AMES SALMONELLA TYPHIMURIUM, Strain/Indicator: TA100, Metabolic Activation: HAMSTER, LIVER, S-9, AROCLOR 1254 (10%), Method: STANDARD PLATE inactive; negative | [2] inactive; negative | Test System: AMES SALMONELLA TYPHIMURIUM, Strain/Indicator: TA100, Metabolic Activation: RAT, LIVER, S-9, AROCLOR 1254 (10%), Method: STANDARD PLATE inactive; negative | Test System: AMES SALMONELLA TYPHIMURIUM, Strain/Indicator: TA1535, Metabolic Activation: HAMSTER, LIVER, S-9, AROCLOR 1254 (10%), Method: STANDARD PLATE inactive; negative | Test System: AMES SALMONELLA TYPHIMURIUM, Strain/Indicator: TA1535, Metabolic Activation: NONE, Method: STANDARD PLATE inactive; negative | Test System: AMES SALMONELLA TYPHIMURIUM, Strain/Indicator: TA1535, Metabolic Activation: RAT, LIVER, S-9, AROCLOR 1254 (10%), Method: STANDARD PLATE inactive; negative | Test System: AMES SALMONELLA TYPHIMURIUM, Strain/Indicator: TA1537, Metabolic Activation: HAMSTER, LIVER, S-9, AROCLOR 1254 (10%), Method: STANDARD PLATE inactive; negative | Test System: AMES SALMONELLA TYPHIMURIUM, Strain/Indicator: TA1537, Metabolic Activation: NONE, Method: STANDARD PLATE inactive; negative | Test System: AMES SALMONELLA TYPHIMURIUM, Strain/Indicator: TA1537, Metabolic Activation: RAT, LIVER, S-9, AROCLOR 1254 (10%), Method: STANDARD PLATE inactive; negative | Test System: AMES SALMONELLA TYPHIMURIUM, Strain/Indicator: TA1538, Metabolic Activation: HAMSTER, LIVER, S-9, AROCLOR 1254 (10%), Method: STANDARD PLATE inactive; negative | Test System: AMES SALMONELLA TYPHIMURIUM, Strain/Indicator: TA1538, Metabolic Activation: NONE, Method: STANDARD PLATE inactive; negative | Test System: AMES SALMONELLA TYPHIMURIUM, Strain/Indicator: TA1538, Metabolic Activation: RAT, LIVER, S-9, AROCLOR 1254 (10%), Method: STANDARD PLATE inactive; negative | Test System: MOUSE LYMPHOMA, Strain/Indicator: L5178Y (TK+/TK-), Metabolic Activation: NONE, Method: SUSPENSION/PLATE inactive; negative. reevaluation of results: negative
active: Test System: MOUSE LYMPHOMA, Strain/Indicator: L5178Y (TK+/TK-), Metabolic Activation: RAT, LIVER, S-9, AROCLOR 1254, Method: SUSPENSION/PLATE active; positive. reevaluation of results: equivocal

NNC(=O)c1[nH]c2ccccc2c1N
inactive: Test System: AMES SALMONELLA TYPHIMURIUM, Strain/Indicator: TA97, Metabolic Activation: S-9 (10%), Method: PREINCUBATION inactive; negative | Test System: AMES SALMONELLA TYPHIMURIUM, Strain/Indicator: TA98, Metabolic Activation: S-9 (10%), Method: PREINCUBATION inactive; negative | [5] inactive; negative | Test System: AMES SALMONELLA TYPHIMURIUM, Strain/Indicator: TA100, Metabolic Activation: S-9 (10%), Method: PREINCUBATION inactive; negative | Test System: AMES SALMONELLA TYPHIMURIUM, Strain/Indicator: TA102, Metabolic Activation: NONE, Method: PREINCUBATION inactive; negative | Test System: AMES SALMONELLA TYPHIMURIUM, Strain/Indicator: TA102, Metabolic Activation: S-9 (10%), Method: PREINCUBATION inactive; negative
active: Test System: AMES SALMONELLA TYPHIMURIUM, Strain/Indicator: TA97, Metabolic Activation: NONE, Method: PREINCUBATION active; positive | [4] active; positive

O=[N+]([O-])c1ccc2c(c1)CCc1cc([N+](=O)[O-])ccc1-2
active: Test System: AMES SALMONELLA TYPHIMURIUM, Strain/Indicator: TA98(1,8-DNP6), Metabolic Activation: NONE, Method: STANDARD PLATE active; positive | Test System: AMES SALMONELLA TYPHIMURIUM, Strain/Indicator: TA98(NR), Metabolic Activation: NONE, Method: STANDARD PLATE active; positive | [1] active; positive

O=C(O)/C=C/c1cccc([N+](=O)[O-])c1
inactive: [4] inactive; negative | [1] inactive; negative | [6] inactive; negative | [7] inactive; negative | Test System: AMES SALMONELLA TYPHIMURIUM, Strain/Indicator: TA1537, Metabolic Activation: NONE, Method: PREINCUBATION inactive; negative | Test System: AMES SALMONELLA TYPHIMURIUM, Strain/Indicator: TA1538, Metabolic Activation: NONE, Method: PREINCUBATION inactive; negative
active: [5] active; positive | [2] active; positive | [3] active; positive | Test System: AMES SALMONELLA TYPHIMURIUM, Strain/Indicator: TA1535, Metabolic Activation: NONE, Method: PREINCUBATION active; positive

CON(C)C(=O)Nc1ccc(Br)cc1
inactive: [1] inactive; negative | [6] inactive; negative | [2] inactive; negative | [7] inactive; negative
